Measured values from PubChem BioAssay AID2060620 (Molecular Pharmacology Branch, DTP, NCI, 2025).

System: 328373-195-R-J1-PDC complex spheroids, viability % test/control
Test: Anticancer human tumor 328373-195-R-J1-PDC patient-derived head and neck squamous carcinoma cell line growth inhibition [CLK]
Details: for IC50: curve of first compound; for viability, T/C: stronger effect = lower value
In short: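 Multi-cell-type spheroids combined patient-derived tumor cells with HUVEC endothelial cells and human mesenchymal stem cells. Paired agents were dosed in half-log steps down from about clinical Cmax, or from 10 microM where Cmax was unknown.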

[1] = second compound 0.0316 µM, first compound 0.0316 µM
[2] = second compound 0.0316 µM, first compound 0.1 µM
[3] = second compound 0.0316 µM, first compound 0.316 µM
[4] = second compound 0.0316 µM, first compound 1 µM
[5] = second compound 0.0316 µM, first compound 3.16 µM
[6] = second compound 0.0316 µM, first compound 10 µM
[7] = second compound 0.1 µM, first compound 0.0316 µM
[8] = second compound 0.1 µM, first compound 0.1 µM
[9] = second compound 0.1 µM, first compound 0.316 µM
[10] = second compound 0.1 µM, first compound 1 µM
[11] = second compound 0.1 µM, first compound 3.16 µM
[12] = second compound 0.1 µM, first compound 10 µM
[13] = second compound 0.316 µM, first compound 0.0316 µM
[14] = second compound 0.316 µM, first compound 0.1 µM
[15] = second compound 0.316 µM, first compound 0.316 µM
[16] = second compound 0.316 µM, first compound 1 µM
[17] = second compound 0.316 µM, first compound 3.16 µM
[18] = second compound 0.316 µM, first compound 10 µM
[19] = second compound 1 µM, first compound 0.0316 µM
[20] = second compound 1 µM, first compound 0.1 µM
[21] = second compound 1 µM, first compound 0.316 µM
[22] = second compound 1 µM, first compound 1 µM
[23] = second compound 1 µM, first compound 3.16 µM
[24] = second compound 1 µM, first compound 10 µM
[25] = second compound 3.16 µM, first compound 0.0316 µM
[26] = second compound 3.16 µM, first compound 0.1 µM
[27] = second compound 3.16 µM, first compound 0.316 µM
[28] = second compound 3.16 µM, first compound 1 µM
[29] = second compound 3.16 µM, first compound 3.16 µM
[30] = second compound 3.16 µM, first compound 10 µM
[31] = second compound 10 µM, first compound 0.0316 µM
[32] = second compound 10 µM, first compound 0.1 µM
[33] = second compound 10 µM, first compound 0.316 µM
[34] = second compound 10 µM, first compound 1 µM
[35] = second compound 10 µM, first compound 3.16 µM
[36] = second compound 10 µM, first compound 10 µM
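Note: spheroids exposed to the agents for 7 days.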

C#Cc1c(F)ccc2cc(O)cc(-c3ncc4c(N5CC6CCC(C5)N6)nc(OCC56CCCN5CC(F)C6)nc4c3F)c12 (centres undefined) + CNC(=O)c1ccc(Nc2nc(OC3CCCC3)c3c(-c4ccc5nc(C)oc5c4)c[nH]c3n2)c(OC)c1
IC50 (second compound 0.0316 µM): 5140 nM | IC50 (second compound 0.1 µM): < 31.6 nM | IC50 (second compound 0.316 µM): < 31.6 nM | IC50 (second compound 1 µM): < 31.6 nM | IC50 (second compound 3.16 µM): < 31.6 nM | IC50 (second compound 10 µM): < 31.6 nM | viability, T/C [1]: 68.5% | viability, T/C [2]: 63.2% | viability, T/C [3]: 60.2% | viability, T/C [4]: 65% | viability, T/C [5]: 62.6% | viability, T/C [6]: 32.6% | viability, T/C [7]: 11.3% | viability, T/C [8]: 10.5% | viability, T/C [9]: 7.58% | viability, T/C [10]: 11.6% | viability, T/C [11]: 9.36% | viability, T/C [12]: 7.63% | viability, T/C [13]: 8.02% | viability, T/C [14]: 9.37% | viability, T/C [15]: 9.67% | viability, T/C [16]: 8.78% | viability, T/C [17]: 7.32% | viability, T/C [18]: 5.64% | viability, T/C [19]: 10% | viability, T/C [20]: 11.6% | viability, T/C [21]: 8.24% | viability, T/C [22]: 9.01% | viability, T/C [23]: 8.47% | viability, T/C [24]: 5.54% | viability, T/C [25]: 9.2% | viability, T/C [26]: 8.8% | viability, T/C [27]: 9.68% | viability, T/C [28]: 9.11% | viability, T/C [29]: 9.06% | viability, T/C [30]: 6.06% | viability, T/C [31]: 10.7% | viability, T/C [32]: 11.8% | viability, T/C [33]: 10.1% | viability, T/C [34]: 10.3% | viability, T/C [35]: 10.5% | viability, T/C [36]: 4.63%

CC(CO)NC(=O)c1cc(-c2ccc(Cl)cc2)nn(-c2cnn(C)c2)c1=O (centres undefined) + CNC(=O)c1ccc(Nc2nc(OC3CCCC3)c3c(-c4ccc5nc(C)oc5c4)c[nH]c3n2)c(OC)c1
IC50 (second compound 0.0316 µM): > 10000 nM | IC50 (second compound 0.1 µM): < 31.6 nM | IC50 (second compound 0.316 µM): < 31.6 nM | IC50 (second compound 1 µM): < 31.6 nM | IC50 (second compound 3.16 µM): < 31.6 nM | IC50 (second compound 10 µM): < 31.6 nM | viability, T/C [1]: 76.2% | viability, T/C [2]: 80.8% | viability, T/C [3]: 73% | viability, T/C [4]: 90.8% | viability, T/C [5]: 73.6% | viability, T/C [6]: 62.9% | viability, T/C [7]: 16.1% | viability, T/C [8]: 12.2% | viability, T/C [9]: 11.9% | viability, T/C [10]: 14.1% | viability, T/C [11]: 16.1% | viability, T/C [12]: 12.8% | viability, T/C [13]: 10.9% | viability, T/C [14]: 10.5% | viability, T/C [15]: 11.2% | viability, T/C [16]: 11.8% | viability, T/C [17]: 11.4% | viability, T/C [18]: 12% | viability, T/C [19]: 8.66% | viability, T/C [20]: 9.73% | viability, T/C [21]: 9.96% | viability, T/C [22]: 10.2% | viability, T/C [23]: 9.14% | viability, T/C [24]: 8.61% | viability, T/C [25]: 13.6% | viability, T/C [26]: 10.9% | viability, T/C [27]: 8.97% | viability, T/C [28]: 10.1% | viability, T/C [29]: 12.7% | viability, T/C [30]: 10.7% | viability, T/C [31]: 12.9% | viability, T/C [32]: 9.53% | viability, T/C [33]: 11.4% | viability, T/C [34]: 12.1% | viability, T/C [35]: 13.2% | viability, T/C [36]: 11.7%
